Holding throughout (test): ≥ marks a high value that may be exact or a test limit, other limits are often not marked, values filed in µg/mL are converted to µM
The test system of assay [1] is Staphylococcus aureus ATCC 25923.
Assay [2] relates to Pseudomonas aeruginosa ATCC 27853.
The subject of assay [3] is Escherichia coli ATCC 25922.
The subject of another assay is Staphylococcus aureus.
Another assay relates to Escherichia coli.

The structures appear in SMILES notation. Converted amounts (≈) assume the structure as drawn. A value given as a limit tells only on which side of the number the result lay.

The record followed here is DBAASP.

One may read the MIC as the lowest concentration that inhibits growth of the organism. Consider `CC(C)C[C@H](NC(=O)[C@H](C)NC(=O)[C@@H](N)CO)C(=O)N[C@H](C(=O)NCC(=O)N[C@H]1CSSC[C@@H](C(=O)N[C@@H](Cc2ccccc2)C(=O)NCC(=O)N[C@@H](CCCN=C(N)N)C(=O)NCC(=O)O)NC(=O)[C@@H]2CCCN2C(=O)[C@H](CCCCN)NC(=O)[C@@H]2CCCN2C(=O)[C@@H]2CCCN2C(=O)[C@H](Cc2c[nH]c3ccccc23)NC(=O)[C@H](CO)NC(=O)[C@H](CCCCN)NC(=O)[C@H]([C@@H](C)O)NC(=O)[C@H](Cc2c[nH]c3ccccc23)NC1=O)C(C)C` [SALVGCWTKSWPPKPCFGRG], for which the MIC in assay [1] was determined as 23 µM (≈ 50 µg/mL).
In the case of `CC(C)[C@H](NC(=O)[C@H](Cc1ccc(O)cc1)NC(=O)[C@H](CO)NC(=O)[C@H](CCCCN)NC(=O)[C@@H](N)CCCCN)C(=O)N[C@@H](CCCN=C(N)N)C(=O)N[C@@H](CCCN=C(N)N)C(=O)N[C@@H](Cc1c[nH]c2ccccc12)C(=O)N[C@@H](CCCN=C(N)N)C(=O)N[C@@H](CO)C(N)=O` [KKSYVRRWRS], the MIC in assay [1], in assay [2] and in assay [3] was above 100 µM each time.
Turning to `CC(C)C[C@H](NC(=O)[C@H](CCCCN)NC(=O)[C@H](CCCCN)NC(=O)[C@H](C)NC(=O)[C@H](CC(C)C)NC(=O)[C@H](CCCCN)NC(=O)[C@H](C)NC(=O)[C@H](CC(C)C)NC(=O)[C@H](CCCCN)NC(=O)[C@H](CCCCN)NC(=O)[C@H](C)NC(=O)[C@H](CC(C)C)NC(=O)[C@H](CCCCN)NC(=O)[C@H](C)NC(=O)[C@H](CC(C)C)NC(=O)[C@H](CCCCN)NC(=O)[C@H](CCCCN)NC(=O)[C@H](C)NC(=O)[C@H](CC(C)C)NC(=O)[C@@H](N)CCCCN)C(=O)N[C@@H](C)C(N)=O` [KLAKKLAKLAKKLAKLAKKLA], the MIC in assay [1], in assay [2] and in assay [3] was 4 µM (≈ 9.1 µg/mL) throughout.
Regarding `CC[C@H](C)[C@H](NC(=O)[C@@H](NC(=O)[C@H](CCCCN)NC(=O)[C@H](CC(C)C)NC(=O)[C@H](CC(C)C)NC(=O)[C@@H](N)CCCCN)C(C)C)C(=O)N[C@@H](CCCCN)C(=O)N[C@@H](CCCCN)C(=O)N[C@@H](CC(C)C)C(=O)N[C@@H](CC(C)C)C(N)=O` [KLLKVIKKLL], the values for the MIC in assay [1] and in assay [3] were 7.53 µM (≈ 8.99 µg/mL) and 5.02 µM (≈ 6 µg/mL), respectively.
Regarding `CC(C)[C@H](NC(=O)[C@H](Cc1ccc(O)cc1)NC(=O)[C@H](CO)NC(=O)[C@H](CCCCN)NC(=O)[C@@H](N)Cc1c[nH]c2ccccc12)C(=O)N[C@@H](CCCN=C(N)N)C(=O)N[C@@H](CCCN=C(N)N)C(=O)N[C@@H](Cc1c[nH]c2ccccc12)C(N)=O` [WKSYVRRW], the MIC in assay [1] was 100 µM (≈ 118 µg/mL); in assay [2], above 100 µM; in assay [3], 64 µM (≈ 75.5 µg/mL).
In turn, `CC(C)C[C@H](NC(=O)[C@H](Cc1ccccc1)NC(=O)[C@@H]1CCCN1C(=O)[C@H](Cc1c[nH]c2ccccc12)NC(=O)[C@H](C)NC(=O)[C@H](Cc1c[nH]c2ccccc12)NC(=O)[C@@H]1CCCN1C(=O)[C@H](Cc1ccccc1)NC(=O)[C@H](CCCN=C(N)N)NC(=O)[C@H](CCCN=C(N)N)NC(=O)[C@@H](N)C(C)C)C(=O)N[C@@H](CCCN=C(N)N)C(=O)N[C@@H](CCCN=C(N)N)C(N)=O` [VRRFPWAWPFLRR] yielded an MIC in assay [3] of 16 µM (≈ 28.6 µg/mL).
For `CC[C@H](C)[C@H](NC(=O)[C@H](CCCN=C(N)N)NC(=O)[C@H](CCCCN)NC(=O)[C@@H](N)CC(C)C)C(=O)N[C@@H](CCCCN)C(=O)N[C@H](C(=O)N[C@@H](CC(C)C)C(=O)N[C@@H](CC(C)C)C(N)=O)[C@@H](C)O` [LKRIKTLL], the MIC in assay [1] and in assay [3] was above 31.5 µM in each case.
As for `CC(C)C[C@H](NC(=O)[C@H](Cc1ccc(O)cc1)NC(=O)[C@@H]1CCCN1C(=O)[C@H](Cc1c[nH]c2ccccc12)NC(=O)[C@H](Cc1c[nH]c2ccccc12)NC(=O)[C@H](Cc1c[nH]c2ccccc12)NC(=O)[C@@H]1CCCN1C(=O)[C@H](Cc1ccc(O)cc1)NC(=O)[C@H](CCCN=C(N)N)NC(=O)[C@H](CCCN=C(N)N)NC(=O)[C@@H](N)C(C)C)C(=O)N[C@@H](CCCN=C(N)N)C(=O)N[C@@H](CCCN=C(N)N)C(N)=O` [VRRYPWWWPYLRR], the MIC is 2.58 µM (≈ 5 µg/mL) with Staphylococcus aureus and 10.3 µM (≈ 20 µg/mL) against Escherichia coli.
`CC[C@H](C)[C@H](NC(=O)[C@H](Cc1ccc(O)cc1)NC(=O)[C@H](CCC(N)=O)NC(=O)[C@H](CC(C)C)NC(=O)[C@H](C)N)C(=O)N[C@@H](CCCCN)C(=O)N[C@@H](CC(C)C)C(=O)N[C@@H](CC(C)C)C(=O)N[C@@H](CCCCN)C(=O)N[C@@H](CCC(=O)O)C(N)=O` [ALQYIKLLKE]: the MIC in assay [2] and in assay [3] was above 100 µM each time.
Turning to `CC[C@H](C)[C@H](NC(=O)[C@@H](NC(=O)[C@H](CC(N)=O)NC(=O)[C@H](CC(C)C)NC(=O)[C@H](CC(C)C)NC(=O)CN)C(C)C)C(=O)N[C@@H](CCCCN)C(=O)N[C@@H](CC(=O)O)C(=O)N[C@H](C(=O)N[C@@H](C)C(=O)N[C@@H](CCC(N)=O)C(=O)N[C@@H](CC(N)=O)C(=O)N[C@@H](CC(C)C)C(=O)N[C@@H](Cc1ccccc1)C(=O)N[C@@H](C)C(=O)N[C@@H](C)C(=O)N[C@@H](C)C(=O)N[C@@H](CC(C)C)C(=O)N[C@@H](CC(=O)O)C(=O)N[C@@H](CCCCN)C(=O)N[C@@H](CC(C)C)C(=O)N[C@@H](CCCCN)C(=O)N[C@H]1CSSC[C@@H](C(=O)N[C@@H](CC(N)=O)C(=O)O)NC(=O)[C@H](CCCCN)NC(=O)[C@H]([C@@H](C)O)NC(=O)[C@H](C(C)C)NC(=O)[C@H](CCCCN)NC1=O)[C@@H](C)O` [GLLNVIKDTAQNLFAAALDKLKCKVTKCN], the results for the MIC in assay [1] and in assay [3] were above 160 µM and 80 µM (≈ 251 µg/mL), respectively.
In the same order, the values of `CC[C@H](C)[C@H](NC(=O)[C@@H](NC(=O)[C@H](CCCCN)NC(=O)[C@H](CC(C)C)NC(=O)[C@H](CC(C)C)NC(=O)CN)C(C)C)C(=O)N[C@@H](CCCCN)C(=O)N[C@H](C(=O)N[C@@H](CC(C)C)C(=O)N[C@@H](CC(C)C)C(N)=O)C(C)C` [GLLKVIKVLL] are 12.8 µM (≈ 14 µg/mL) and 25.6 µM (≈ 28 µg/mL).
In the same order, the values of `CC[C@H](C)[C@H](NC(=O)[C@H](CCC(N)=O)NC(=O)[C@H](CCCCN)NC(=O)[C@@H](NC(=O)[C@H](CC(C)C)NC(=O)[C@H](CCC(N)=O)NC(=O)[C@H](C)NC(=O)[C@H](Cc1ccccc1)NC(=O)[C@@H](NC(=O)[C@H](CC(=O)O)NC(=O)[C@H](CCCCN)NC(=O)CNC(=O)[C@@H](NC(=O)CNC(=O)[C@@H](NC(=O)[C@@H](NC(=O)[C@H](Cc1ccccc1)NC(=O)[C@H](CC(=O)O)NC(=O)[C@H](CC(C)C)NC(=O)[C@H](CC(C)C)NC(=O)CN)C(C)C)[C@@H](C)O)C(C)C)[C@@H](C)CC)[C@@H](C)CC)C(N)=O` [GLLDFVTGVGKDIFAQLIKQI] are 64 µM (≈ 146 µg/mL) and 64 µM (≈ 146 µg/mL).
In the same order, the values of `CC(C)C[C@H](NC(=O)[C@H](C)NC(=O)[C@@H](N)CO)C(=O)N[C@H](C(=O)NCC(=O)N[C@H]1CSSC[C@@H](C(=O)N[C@@H](Cc2ccccc2)C(=O)NCC(=O)N[C@@H](CCCN=C(N)N)C(=O)O)NC(=O)[C@@H]2CCCN2C(=O)[C@H](CCCCN)NC(=O)[C@@H]2CCCN2C(=O)[C@@H]2CCCN2C(=O)[C@H](Cc2c[nH]c3ccccc23)NC(=O)[C@H](CO)NC(=O)[C@H](CCCCN)NC(=O)[C@H]([C@@H](C)O)NC(=O)[C@H](Cc2c[nH]c3ccccc23)NC1=O)C(C)C` [SALVGCWTKSWPPKPCFGR] are 11.8 µM (≈ 25 µg/mL) and 23.6 µM (≈ 50 µg/mL).
For the molecule `CC(C)C[C@H](NC(=O)CN)C(=O)N[C@@H](Cc1ccccc1)C(=O)N[C@@H](CC(=O)O)C(=O)N[C@H](C(=O)N[C@H](C(=O)N[C@@H](CCCCN)C(=O)NCC(=O)N[C@H](C(=O)N[C@@H](CC(C)C)C(=O)N[C@@H](CCCCN)C(=O)NCC(=O)N[C@@H](C)C(=O)NCC(=O)N[C@@H](CCCCN)C(=O)N[C@@H](CC(N)=O)C(=O)N[C@H](C(=O)N[C@@H](C)C(=O)NCC(=O)N[C@@H](CO)C(=O)N[C@@H](CC(C)C)C(=O)N[C@@H](CC(C)C)C(=O)N[C@@H](CCC(=O)O)C(=O)N[C@@H](CCC(N)=O)C(=O)N[C@@H](CC(C)C)C(=O)N[C@@H](CCCCN)C(=O)N[C@H]1CSSC[C@@H](C(=O)O)NC(=O)CNC(=O)CNC(=O)[C@H](CO)NC(=O)[C@H](CC(C)C)NC(=O)[C@H](CCCCN)NC1=O)C(C)C)C(C)C)C(C)C)C(C)C` [GLFDVVKGVLKGAGKNVAGSLLEQLKCKLSGGC], the MIC in assay [1] and in assay [3] was 30 µM (≈ 98.6 µg/mL) throughout.
In turn, `CC[C@H](C)[C@H](NC(=O)CNC(=O)[C@H](CCC(N)=O)NC(=O)CNC(=O)[C@H](Cc1c[nH]c2ccccc12)NC(=O)[C@H](CCCCN)NC(=O)[C@H](CCC(=O)O)NC(=O)[C@@H](NC(=O)[C@H](CCCCN)NC(=O)[C@H](CCCCN)NC(=O)[C@H](Cc1c[nH]c2ccccc12)NC(=O)[C@H](CC(C)C)NC(=O)[C@H](CCCCN)NC(=O)[C@H](Cc1c[nH]c2ccccc12)NC(=O)[C@@H](N)CCCCN)[C@@H](C)CC)C(=O)NCC(=O)N[C@@H](C)C(=O)N[C@H](C(=O)N[C@@H](CC(C)C)C(=O)N[C@@H](CCCCN)C(=O)N[C@@H](Cc1c[nH]c2ccccc12)C(=O)N[C@@H](CC(C)C)C(=O)N[C@H](C(=O)N[C@H](C(=O)N[C@@H](Cc1c[nH]c2ccccc12)C(=O)N[C@@H](CC(C)C)C(=O)O)[C@@H](C)O)[C@@H](C)O)C(C)C` [KWKLWKKIEKWGQGIGAVLKWLTTWL] showed an MIC in assay [2] of 32 µM (≈ 102 µg/mL).
In the case of `CC[C@H](C)[C@H](NC(=O)[C@@H](N)C(C)C)C(=O)N[C@@H](C)C(=O)N[C@@H](Cc1ccccc1)C(=O)N[C@@H](C)C(=O)N[C@@H](CCCCN)C(=O)N[C@H](C(=O)N[C@@H](CCCCN)C(=O)N[C@@H](CCC(=O)O)C(=O)N[C@@H](C)C(=O)N[C@@H](CCCCN)C(=O)N[C@@H](C)C(=O)N[C@@H](CCCCN)C(=O)N[C@@H](CC(C)C)C(=O)N[C@@H](CCCCN)C(=O)NCC(=O)N[C@@H](CCC(N)=O)C(=O)N[C@@H](C)C(=O)N[C@@H](CCCCN)C(=O)NCC(=O)O)[C@@H](C)O` [VIAFAKTKEAKAKLKGQAKG], the MIC with Escherichia coli is above 123 µM.
